Holding throughout (assay type): functional
One test deals with Pieris brassicae. The test can be described thus: Insecticidal activity against fourth-instar larvae of Pieris brassicae assessed as mortality per insect after 5 days.
Test [1] concerns Oncopeltus fasciatus. The test can be described thus: Morphogenetic activity against fourth-instar nymphs of Oncopeltus fasciatus assessed as occurrence of precocious metamorphosis at 3 ug/cm'2.
Test [2] concerns Oncopeltus fasciatus. Nature of the test: Morphogenetic activity against second-instar nymphs of Oncopeltus fasciatus assessed as mortality at 3 ug/cm'2.
Test [3] deals with Oncopeltus fasciatus. Nature of the test: Morphogenetic activity against third-instar nymphs of Oncopeltus fasciatus assessed as occurrence of precocious metamorphosis at 3 ug/cm'2.
In test [4] the test system is Oncopeltus fasciatus. Nature of the test: Morphogenetic activity against fifth-instar nymphs of Oncopeltus fasciatus assessed as occurrence of precocious metamorphosis at 3 ug/cm'2.

`CCOc1c(OC)cc2c(c1C)C=CC(C)(C)O2`: in the test on Pieris brassicae, the LD50 is 71 µg. For the same compound, the figures for the Activity with Oncopeltus fasciatus [1], in the test on Oncopeltus fasciatus [2] and in the test on Oncopeltus fasciatus [3] were 37.5%, 52.5% and 0%, respectively.

Turning to `COc1c(OC2CCCC2)cc2c(c1C)C=CC(C)(C)O2`, the LD50 in the test on Pieris brassicae was 22.4 µg. The Activity in the test with Oncopeltus fasciatus [2] is recorded as 52.5%; in the test on Oncopeltus fasciatus [3], 0%.

Take `CCC(C)Oc1cc2c(c(C)c1OC)C=CC(C)(C)O2` (configuration not stated): in the test on Pieris brassicae, the LD50 was found to be 20 µg. The Activity in the test with Oncopeltus fasciatus [1] is recorded as 0%; in the test with Oncopeltus fasciatus [2] it was 47.5%; with Oncopeltus fasciatus [4], 37.5%; in the test on Oncopeltus fasciatus [3] it was 0%.

`C#CCOc1cc2c(c(C)c1OC)C=CC(C)(C)O2`: the LD50 in the test on Pieris brassicae is 29.9 µg. Moreover, the Activity in the test on Oncopeltus fasciatus [1] worked out at 0%; in the test on Oncopeltus fasciatus [2], 30%; in the test on Oncopeltus fasciatus [4], 20%; in the test with Oncopeltus fasciatus [3] it was 0%.

As for `CCCOc1cc2c(c(C)c1OC)C=CC(C)(C)O2`, the LD50 in the test with Pieris brassicae amounted to 32.7 µg. The Activity was found to be 80% with Oncopeltus fasciatus [1], 15% in the test on Oncopeltus fasciatus [2], 0% with Oncopeltus fasciatus [4] and 0% in the test on Oncopeltus fasciatus [3].

In the case of `CCOc1cc2c(cc1OC)C=CC(C)(C)O2`, the LD50 with Pieris brassicae stood at 24.5 µg. Moreover, the Activity was 5% in the test on Oncopeltus fasciatus [1], 20% in the test on Oncopeltus fasciatus [2], 15% with Oncopeltus fasciatus [4] and 60% in the test on Oncopeltus fasciatus [3].

As to `COc1cc2c(c(C)c1OC)C=CC(C)(C)O2`, the LD50 with Pieris brassicae was found to be 96.5 µg. For the same compound, the Activity in the test on Oncopeltus fasciatus [1] worked out at 45%; in the test on Oncopeltus fasciatus [2], 30%; in the test on Oncopeltus fasciatus [4], 0%; in the test with Oncopeltus fasciatus [3] it was 25%.

With `CCOc1cc2c(c(C)c1OC)C=CC(C)(C)O2`, in the test on Pieris brassicae, the LD50 turned out to be 88.3 µg. The Activity is listed as 95% in the test on Oncopeltus fasciatus [1], 5% in the test on Oncopeltus fasciatus [2], 0% in the test on Oncopeltus fasciatus [4] and 0% with Oncopeltus fasciatus [3].

For `COc1cc2c(cc1OC)OC(C)(C)C=C2` [PROCOCENE II], in the test on Pieris brassicae, the LD50 was 39.5 µg. In addition, the Activity in the test on Oncopeltus fasciatus [1] came to 27.5%; in the test with Oncopeltus fasciatus [2] it was 45%; in the test on Oncopeltus fasciatus [4], 5%; in the test with Oncopeltus fasciatus [3] it was 22.5%.
